In US10040781B2, “Tank-binding kinase inhibitor compounds” (Gilead Sciences, Inc., priority 2014, dated 2018):

Experiments:
hJAK2 = hJAK2 (Homo sapiens (Human), UniProt O60674); assay: hJAK2 LANCE TR-FRET enzymatic assay; assay type: biochemical; conditions: read-out: JAK2 IC50
IKKε = IKKε (Homo sapiens (Human), UniProt Q14164); assay: IKKε TR-FRET enzymatic assay; assay type: biochemical; conditions: read-out: IKKe IC50
TBK1 = TBK1 (Homo sapiens (Human), UniProt Q9UHD2); assay: TBK1 TR-FRET enzymatic assay;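 note: phosphorylation of a biotinylated Ser/Thr peptide by purified full-length recombinant TBK1, read by TR-FRET after 240 min at 25 °C, IC50 is the geometric mean of at least four runs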
Chain of TBK1 (Q9UHD2 whole entry): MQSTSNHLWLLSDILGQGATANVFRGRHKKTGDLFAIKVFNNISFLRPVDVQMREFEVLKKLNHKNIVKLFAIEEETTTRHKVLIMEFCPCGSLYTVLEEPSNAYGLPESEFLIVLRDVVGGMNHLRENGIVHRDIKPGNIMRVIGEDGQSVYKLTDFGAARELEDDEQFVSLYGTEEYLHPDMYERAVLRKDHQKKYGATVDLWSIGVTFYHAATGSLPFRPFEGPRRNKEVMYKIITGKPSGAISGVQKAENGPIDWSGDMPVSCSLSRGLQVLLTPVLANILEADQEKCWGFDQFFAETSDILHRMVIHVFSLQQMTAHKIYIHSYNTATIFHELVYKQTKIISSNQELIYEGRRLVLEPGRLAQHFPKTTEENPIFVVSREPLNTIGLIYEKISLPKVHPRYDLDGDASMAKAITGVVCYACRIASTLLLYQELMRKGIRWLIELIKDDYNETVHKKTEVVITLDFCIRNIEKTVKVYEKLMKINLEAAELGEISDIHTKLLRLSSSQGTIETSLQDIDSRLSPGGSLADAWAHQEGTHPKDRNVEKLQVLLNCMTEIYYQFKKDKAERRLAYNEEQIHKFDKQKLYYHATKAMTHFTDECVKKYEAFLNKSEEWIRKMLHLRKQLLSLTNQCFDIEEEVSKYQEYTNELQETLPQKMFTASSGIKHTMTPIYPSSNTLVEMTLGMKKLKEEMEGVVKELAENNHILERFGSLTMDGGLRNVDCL

Chain of hJAK2 (O60674 whole entry): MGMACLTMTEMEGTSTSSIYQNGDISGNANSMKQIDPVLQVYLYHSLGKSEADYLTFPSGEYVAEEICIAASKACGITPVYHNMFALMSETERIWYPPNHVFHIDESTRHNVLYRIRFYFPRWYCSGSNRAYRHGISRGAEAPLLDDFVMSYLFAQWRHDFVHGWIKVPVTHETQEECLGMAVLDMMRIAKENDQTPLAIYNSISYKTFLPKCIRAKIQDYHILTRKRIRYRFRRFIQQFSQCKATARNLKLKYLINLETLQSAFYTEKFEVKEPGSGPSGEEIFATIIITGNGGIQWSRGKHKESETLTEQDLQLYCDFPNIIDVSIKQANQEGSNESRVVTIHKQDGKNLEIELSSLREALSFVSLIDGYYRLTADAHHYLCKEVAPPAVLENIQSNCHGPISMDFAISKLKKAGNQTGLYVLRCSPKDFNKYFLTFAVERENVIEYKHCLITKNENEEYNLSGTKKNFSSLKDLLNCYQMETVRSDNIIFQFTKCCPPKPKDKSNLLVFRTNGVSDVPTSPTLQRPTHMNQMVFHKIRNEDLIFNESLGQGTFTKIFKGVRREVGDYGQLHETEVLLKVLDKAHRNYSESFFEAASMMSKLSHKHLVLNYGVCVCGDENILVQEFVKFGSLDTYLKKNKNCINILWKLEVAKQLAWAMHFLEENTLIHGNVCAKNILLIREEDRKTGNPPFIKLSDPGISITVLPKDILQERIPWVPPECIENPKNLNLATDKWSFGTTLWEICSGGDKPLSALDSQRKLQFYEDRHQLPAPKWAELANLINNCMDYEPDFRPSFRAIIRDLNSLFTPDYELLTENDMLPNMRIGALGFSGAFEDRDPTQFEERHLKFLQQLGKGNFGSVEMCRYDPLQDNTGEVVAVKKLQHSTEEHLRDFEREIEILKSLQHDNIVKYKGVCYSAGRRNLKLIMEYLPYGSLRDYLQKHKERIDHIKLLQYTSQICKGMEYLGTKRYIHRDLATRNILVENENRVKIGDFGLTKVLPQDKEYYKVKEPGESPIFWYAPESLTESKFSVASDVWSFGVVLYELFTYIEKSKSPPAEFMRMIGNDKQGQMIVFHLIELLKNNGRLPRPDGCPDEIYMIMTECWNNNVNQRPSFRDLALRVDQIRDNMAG
Chain of IKKε (Q14164 whole entry): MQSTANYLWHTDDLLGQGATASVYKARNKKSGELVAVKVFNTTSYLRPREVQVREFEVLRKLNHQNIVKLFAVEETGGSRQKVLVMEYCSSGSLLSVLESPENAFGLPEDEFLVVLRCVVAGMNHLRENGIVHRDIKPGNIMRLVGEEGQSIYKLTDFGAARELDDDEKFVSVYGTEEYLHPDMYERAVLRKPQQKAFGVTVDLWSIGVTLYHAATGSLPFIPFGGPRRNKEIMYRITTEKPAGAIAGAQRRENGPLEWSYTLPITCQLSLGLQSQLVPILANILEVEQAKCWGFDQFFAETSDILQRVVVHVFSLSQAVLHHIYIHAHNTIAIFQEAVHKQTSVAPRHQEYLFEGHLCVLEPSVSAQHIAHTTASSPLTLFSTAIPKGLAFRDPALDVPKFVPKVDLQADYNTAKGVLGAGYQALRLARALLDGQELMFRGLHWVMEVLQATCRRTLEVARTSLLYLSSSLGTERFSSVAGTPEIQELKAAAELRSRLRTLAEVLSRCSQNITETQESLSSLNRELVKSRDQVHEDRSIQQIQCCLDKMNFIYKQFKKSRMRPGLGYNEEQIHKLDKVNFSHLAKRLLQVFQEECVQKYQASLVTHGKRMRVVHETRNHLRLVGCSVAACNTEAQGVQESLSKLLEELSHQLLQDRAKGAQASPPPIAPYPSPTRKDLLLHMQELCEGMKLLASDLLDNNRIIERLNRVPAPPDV

| SMILES | IC50 (hJAK2) [nM] | IC50 (IKKε) [nM] | IC50 (TBK1) [nM] |
| --- | --- | --- | --- |
| C[C@H](O)C(=O)N1CC[C@H](Oc2ccc(-c3ncnc(Nc4ccc(C(C)(C)O)nc4)n3)cc2C#N)[C@H](F)C1 [Example 382, 2-(((3R,4S)-3-fluoro-1-((S)-2-hydroxypropanoyl)piperidin-4-yl)oxy)-5-(4-((6-(2-hydroxypropan-2-yl)pyridin-3-yl)amino)-1,3,5-triazin-2-yl)benzonitrile] | ≥ 1000 | 3 | 3 |
| C[C@H](O)C(=O)N1CC[C@H](Oc2ccc(-c3ncnc(Nc4ccc(N5CCOC[C@H]5CO)cc4)n3)cc2C#N)[C@H](F)C1 [Example 383, 2-(((3R,4S)-3-fluoro-1-((S)-2-hydroxypropanoyl)piperidin-4-yl)oxy)-5-(4-((4-((R)-3-(hydroxymethyl)morpholino)phenyl)amino)-1,3,5-triazin-2-yl)benzonitrile] | 568 | 1 | 2 |
| C[C@H](O)C(=O)N1CC[C@H](Oc2ccc(-c3ncnc(Nc4ccnc(C(C)(C)O)c4)n3)cc2C#N)[C@H](F)C1 [Example 386, 2-(((3R,4S)-3-fluoro-1-((S)-2-hydroxypropanoyl)piperidin-4-yl)oxy)-5-(4-((2-(2-hydroxypropan-2-yl)pyridin-4-yl)amino)-1,3,5-triazin-2-yl)benzonitrile] | ≥ 1000 | 6 | 4 |
| CC(C)(O)c1ccc(Nc2ncnc(-c3ccc(O[C@H]4CCN(C(=O)CO)C[C@H]4F)c(C#N)c3)n2)cn1 [Example 388, 2-(((3R,4S)-3-fluoro-1-(2-hydroxyacetyl)piperidin-4-yl)oxy)-5-(4-((6-(2-hydroxypropan-2-yl)pyridin-3-yl)amino)-1,3,5-triazin-2-yl)benzonitrile] | ≥ 1000 | 4 | 6 |
| COc1cc(Nc2ncnc(-c3ccc(O[C@H]4CCN(C(=O)[C@H](C)O)C[C@H]4F)c(C#N)c3)n2)ccc1N1CCN(C2COC2)CC1 [Example 389, 2-(((3R,4S)-3-fluoro-1-((S)-2-hydroxypropanoyl)piperidin-4-yl)oxy)-5-(4-((3-methoxy-4-(4-(oxetan-3-yl)piperazin-1-yl)phenyl)amino)-1,3,5-triazin-2-yl)benzonitrile] | 55 | 1 | 2 |
| N#Cc1cc(-c2ncnc(Nc3ccc(N4CCN(C5COC5)CC4)cc3)n2)ccc1O[C@H]1CCN(C(=O)c2ccncc2N)C[C@H]1F [Example 390, 2-(((3R,4S)-1-(3-aminoisonicotinoyl)-3-fluoropiperidin-4-yl)oxy)-5-(4-((4-(4-(oxetan-3-yl)piperazin-1-yl)phenyl)amino)-1,3,5-triazin-2-yl)benzonitrile] | 37 | 165 | 65 |
| COc1cc(Nc2ncnc(-c3ccc(O[C@H]4CCN(C(=O)CO)C[C@H]4F)c(C#N)c3)n2)ccc1N1CCN(C2COC2)CC1 [Example 392, 2-(((3R,4S)-3-fluoro-1-(2-hydroxyacetyl)piperidin-4-yl)oxy)-5-(4-((3-methoxy-4-(4-(oxetan-3-yl)piperazin-1-yl)phenyl)amino)-1,3,5-triazin-2-yl)benzonitrile] | 26 | 1 | 5 |
| N#Cc1cc(-c2ncnc(Nc3ccc(N4CCN(C5COC5)CC4)c(OC(F)F)c3)n2)ccc1O[C@H]1CCN(C(=O)CO)C[C@H]1F [Example 393, 5-(4-((3-(difluoromethoxy)-4-(4-(oxetan-3-yl)piperazin-1-yl)phenyl)amino)-1,3,5-triazin-2-yl)-2-(((3R,4S)-3-fluoro-1-(2-hydroxyacetyl)piperidin-4-yl)oxy)benzonitrile] | 29 | 1 | 3 |
| Cc1cc(Nc2ncnc(-c3ccc(O[C@H]4CCN(C(=O)CO)C[C@H]4F)c(C#N)c3)n2)ccc1N1CCN(C2COC2)CC1 [Example 394, 2-(((3R,4S)-3-fluoro-1-(2-hydroxyacetyl)piperidin-4-yl)oxy)-5-(4-((3-methyl-4-(4-(oxetan-3-yl)piperazin-1-yl)phenyl)amino)-1,3,5-triazin-2-yl)benzonitrile] | 64 | 1 | 2 |
| CC(C)(O)c1cc(Nc2ncnc(-c3ccc(O[C@H]4CCN(C(=O)CO)C[C@H]4F)c(C#N)c3)n2)ccn1 [Example 397, 2-(((3R,4S)-3-fluoro-1-(2-hydroxyacetyl)piperidin-4-yl)oxy)-5-(4-((2-(2-hydroxypropan-2-yl)pyridin-4-yl)amino)-1,3,5-triazin-2-yl)benzonitrile] | 960 | 2 | 2 |

The remaining compounds from weak to strong by IC50 (hJAK2), led by results:

| IC50 (hJAK2) [nM] | IC50 (IKKε) [nM] | IC50 (TBK1) [nM] | SMILES |
| --- | --- | --- | --- |
| 891 | 8 | 6 | CCOC(=O)c1cccc(Nc2ncnc(-c3ccc(O[C@H]4CCN(C(=O)[C@H](C)O)C[C@H]4F)c(C#N)c3)n2)c1 [Example 380, Ethyl 3-((4-(3-cyano-4-(((3R,4S)-3-fluoro-1-((S)-2-hydroxypropanoyl)piperidin-4-yl)oxy)phenyl)-1,3,5-triazin-2-yl)amino)benzoate] |
| 888 | 3 | 2 | C[C@H](O)C(=O)N1CC[C@H](Oc2ccc(-c3ncnc(Nc4ccc5c(c4)NC(=O)C5(C)C)n3)cc2C#N)[C@H](F)C1 [Example 385, 5-(4-((3,3-dimethyl-2-oxoindolin-6-yl)amino)-1,3,5-triazin-2-yl)-2-(((3R,4S)-3-fluoro-1-((8)-2-hydroxypropanoyl)piperidin-4-yl)oxy)benzonitrile] |
| 189 | 1 | 2 | N#Cc1cc(-c2ncnc(Nc3ccc(N4CCOC[C@H]4CO)cc3)n2)ccc1O[C@H]1CCN(C(=O)CO)C[C@H]1F [Example 384, 2-(((3R,4S)-3-fluoro-1-(2-hydroxyacetyl)piperidin-4-yl)oxy)-5-(4-((4-((R)-3-(hydroxymethyl)morpholino)phenyl)amino)-1,3,5-triazin-2-yl)benzonitrile] |
| 137 | 1 | 2 | Cc1cc(Nc2ncnc(-c3ccc(O[C@H]4CCN(C(=O)[C@H](C)O)C[C@H]4F)c(C#N)c3)n2)ccc1N1CCN(C2COC2)CC1 [Example 396, 2-(((3R,4S)-3-fluoro-1-((S)-2-hydroxypropanoyl)piperidin-4-yl)oxy)-5-(4-((3-methyl-4-(4-(oxetan-3-yl)piperazin-1-yl)phenyl)amino)-1,3,5-triazin-2-yl)benzonitrile] |
| 122 | 9 | 6 | N#Cc1cc(-c2ncnc(Nc3ccc(N4CCN(C5COC5)CC4)cc3)n2)ccc1O[C@H]1CCN(C(=O)c2[nH]ncc2N)C[C@H]1F [Example 391, 2-(((3R,4S)-1-(4-amino-1H-pyrazole-5-carbonyl)-3-fluoropiperidin-4-yl)oxy)-5-(4-((4-(4-(oxetan-3-yl)piperazin-1-yl)phenyl)amino)-1,3,5-triazin-2-yl)benzonitrile] |
| 119 | 1 | 2 | C[C@H](O)C(=O)N1CC[C@H](Oc2ccc(-c3ncnc(Nc4ccc(N5CCN(C6COC6)CC5)c(OC(F)F)c4)n3)cc2C#N)[C@H](F)C1 [Example 395, 5-(4-((3-(difluoromethoxy)-4-(4-(oxetan-3-yl)piperazin-1-yl)phenyl)amino)-1,3,5-triazin-2-yl)-2-(((3R,4S)-3-fluoro-1-((S)-2-hydroxypropanoyl)piperidin-4-yl)oxy)benzonitrile] |
